{
  "source": "ChEMBL document CHEMBL1201862",
  "about": "“PubChem BioAssay data set” (2004)",
  "test_in_all_cases": "NCI anticancer screen, dose series, 48 h",
  "key": {"[1]": {"system": "786-0"}, "[2]": {"system": "A498"}, "[3]": {"system": "A549"}, "[4]": {"system": "ACHN"}, "[5]": {"system": "CAKI-1"}, "[6]": {"system": "CCRF-CEM"}, "[7]": {"system": "COLO 205"}, "[8]": {"system": "DLD-1"}, "[9]": {"system": "DMS-273"}, "[10]": {"system": "EKVX"}, "[11]": {"system": "HCC 2998"}, "[12]": {"system": "HCT-116"}, "[13]": {"system": "HCT-15"}, "[14]": {"system": "HL-60"}, "[15]": {"system": "HOP-18"}, "[16]": {"system": "HOP-62"}, "[17]": {"system": "HOP-92"}, "[18]": {"system": "HT-29"}, "[19]": {"system": "IGROV-1"}, "[20]": {"system": "K562"}, "[21]": {"system": "KM-20L2"}, "[22]": {"system": "KM12"}, "[23]": {"system": "LXFL 529"}, "[24]": {"system": "M14"}, "[25]": {"system": "M19-MEL"}, "[26]": {"system": "MOLT-4"}, "[27]": {"system": "Malme-3M"}, "[28]": {"system": "NCI-H226"}, "[29]": {"system": "NCI-H23"}, "[30]": {"system": "NCI-H460"}, "[31]": {"system": "NCI-H522"}, "[32]": {"system": "OVCAR-3"}, "[33]": {"system": "OVCAR-4"}, "[34]": {"system": "OVCAR-5"}, "[35]": {"system": "OVCAR-8"}, "[36]": {"system": "RPMI-8226"}, "[37]": {"system": "RXF 631"}, "[38]": {"system": "SF-268"}, "[39]": {"system": "SF-295"}, "[40]": {"system": "SF-539"}, "[41]": {"system": "SK-MEL-28"}, "[42]": {"system": "SK-MEL-2"}, "[43]": {"system": "SK-MEL-5"}, "[44]": {"system": "SK-OV-3"}, "[45]": {"system": "SN12C"}, "[46]": {"system": "SNB-19"}, "[47]": {"system": "SNB-75"}, "[48]": {"system": "SNB-78"}, "[49]": {"system": "SR"}, "[50]": {"system": "SW-620"}, "[51]": {"system": "TK-10"}, "[52]": {"system": "U-251"}, "[53]": {"system": "UACC-257"}, "[54]": {"system": "UACC-62"}, "[55]": {"system": "UO-31"}, "[56]": {"system": "XF498"}},
  "note": "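Results reflect a 48-hour exposure of cells in 96-well plates to compound at five concentrations. At the GI50, growth is halved.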 Activity calls are given as the source filed them. No stated cut-off is given here; in the data, active = GI50 up to about 1.1 µM and inactive = higher.",
  "data": [
    {"smiles": "O=C(CCC(=O)C1CCC/C1=N/O)Nc1ccc(Cl)cc1", "note": "(stereo unspecified)", "values": [
      {"measurement": "GI50", "setting": "[1]", "value": "> 100 µM (inactive)"},
      {"measurement": "GI50", "setting": "[2]", "value": "> 100 µM (inactive)"},
      {"measurement": "GI50", "setting": "[3]", "value": "> 100 µM (inactive)"},
      {"measurement": "GI50", "setting": "[4]", "value": "> 100 µM (inactive)"},
      {"measurement": "GI50", "setting": "[5]", "value": "> 100 µM (inactive)"},
      {"measurement": "GI50", "setting": "[6]", "value": "> 100 µM (inactive)"},
      {"measurement": "GI50", "setting": "[7]", "value": "> 100 µM (inactive)"},
      {"measurement": "GI50", "setting": "[8]", "value": "> 100 µM (inactive)"},
      {"measurement": "GI50", "setting": "[9]", "value": "> 100 µM (inactive)"},
      {"measurement": "GI50", "setting": "[10]", "value": "> 100 µM (inactive)"},
      {"measurement": "GI50", "setting": "[11]", "value": "> 100 µM (inactive)"},
      {"measurement": "GI50", "setting": "[12]", "value": "> 100 µM (inactive)"},
      {"measurement": "GI50", "setting": "[13]", "value": "> 100", "unit": "µM"},
      {"measurement": "GI50", "setting": "[14]", "value": "> 100 µM (inactive)"},
      {"measurement": "GI50", "setting": "[15]", "value": "> 100 µM (inactive)"},
      {"measurement": "GI50", "setting": "[16]", "value": "> 100 µM (inactive)"},
      {"measurement": "GI50", "setting": "[17]", "value": "> 100 µM (inactive)"},
      {"measurement": "GI50", "setting": "[18]", "value": "> 100 µM (inactive)"},
      {"measurement": "GI50", "setting": "[19]", "value": "> 100 µM (inactive)"},
      {"measurement": "GI50", "setting": "[20]", "value": "> 100 µM (inactive)"},
      {"measurement": "GI50", "setting": "[21]", "value": "> 100 µM (inactive)"},
      {"measurement": "GI50", "setting": "[22]", "value": "> 100 µM (inactive)"},
      {"measurement": "GI50", "setting": "[23]", "value": "> 100 µM (inactive)"},
      {"measurement": "GI50", "setting": "[24]", "value": "> 100 µM (inactive)"},
      {"measurement": "GI50", "setting": "[25]", "value": "> 100 µM (inactive)"},
      {"measurement": "GI50", "setting": "[26]", "value": "> 100 µM (inactive)"},
      {"measurement": "GI50", "setting": "[27]", "value": "> 100 µM (inactive)"},
      {"measurement": "GI50", "setting": "[28]", "value": "> 100 µM (inactive)"},
      {"measurement": "GI50", "setting": "[29]", "value": "> 100 µM (inactive)"},
      {"measurement": "GI50", "setting": "[30]", "value": "> 100 µM (inactive)"},
      {"measurement": "GI50", "setting": "[31]", "value": "> 100 µM (inactive)"},
      {"measurement": "GI50", "setting": "[32]", "value": "> 100 µM (inactive)"},
      {"measurement": "GI50", "setting": "[33]", "value": "> 100 µM (inactive)"},
      {"measurement": "GI50", "setting": "[34]", "value": "> 100 µM (inactive)"},
      {"measurement": "GI50", "setting": "[35]", "value": "> 100 µM (inactive)"},
      {"measurement": "GI50", "setting": "[36]", "value": "> 100 µM (inactive)"},
      {"measurement": "GI50", "setting": "[37]", "value": "> 100 µM (inactive)"},
      {"measurement": "GI50", "setting": "[38]", "value": "> 100 µM (inactive)"},
      {"measurement": "GI50", "setting": "[39]", "value": "> 100 µM (inactive)"},
      {"measurement": "GI50", "setting": "[40]", "value": "> 100 µM (inactive)"},
      {"measurement": "GI50", "setting": "[41]", "value": "> 100 µM (inactive)"},
      {"measurement": "GI50", "setting": "[42]", "value": "> 100 µM (inactive)"},
      {"measurement": "GI50", "setting": "[43]", "value": "> 100 µM (inactive)"},
      {"measurement": "GI50", "setting": "[44]", "value": "> 100 µM (inactive)"},
      {"measurement": "GI50", "setting": "[45]", "value": "> 100 µM (inactive)"},
      {"measurement": "GI50", "setting": "[46]", "value": "> 100 µM (inactive)"},
      {"measurement": "GI50", "setting": "[47]", "value": "74.5 µM (inactive)"},
      {"measurement": "GI50", "setting": "[48]", "value": "> 100 µM (inactive)"},
      {"measurement": "GI50", "setting": "[49]", "value": "> 100 µM (inactive)"},
      {"measurement": "GI50", "setting": "[50]", "value": "> 100 µM (inactive)"},
      {"measurement": "GI50", "setting": "[51]", "value": "> 100 µM (inactive)"},
      {"measurement": "GI50", "setting": "[52]", "value": "> 100 µM (inactive)"},
      {"measurement": "GI50", "setting": "[53]", "value": "> 100 µM (inactive)"},
      {"measurement": "GI50", "setting": "[54]", "value": "> 100 µM (inactive)"},
      {"measurement": "GI50", "setting": "[55]", "value": "> 100 µM (inactive)"},
      {"measurement": "GI50", "setting": "[56]", "value": "> 100 µM (inactive)"}
    ]}
  ]
}
